Measurements taken from the NIST ThermoML archive (doi:10.1021/je060271a).

Conditions: 343.15 K, Liquid, Vibrating tube method

CCCC(=O)OCC(COC(=O)CCC)(COC(=O)CCC)COC(=O)CCC [pentaerythritol tetrabutyrate]
Conditions	mass density [kg/m3]
20390 kPa	1023.3
20430 kPa	1023.3
20478 kPa	1023.4
20526 kPa	1023.4
20575 kPa	1023.5
20625 kPa	1023.5
20668 kPa	1023.6
20718 kPa	1023.5
20770 kPa	1023.6
20824 kPa	1023.8
20870 kPa	1023.6
20921 kPa	1023.6
20960 kPa	1023.7
20996 kPa	1023.8
21033 kPa	1023.8
21064 kPa	1023.8
21100 kPa	1023.9
21137 kPa	1023.9
21173 kPa	1023.9
21204 kPa	1023.9
21241 kPa	1024
21279 kPa	1024
21316 kPa	1024.1
21354 kPa	1024.1
21386 kPa	1024.2
21424 kPa	1024.1
21463 kPa	1024.1
21495 kPa	1024.1
21534 kPa	1024.1
21572 kPa	1024.2
21612 kPa	1024.2
21645 kPa	1024.2
21684 kPa	1024.3
21723 kPa	1024.3
21763 kPa	1024.3
21802 kPa	1024.2
21835 kPa	1024.3
21876 kPa	1024.4
21916 kPa	1024.4
21956 kPa	1024.4
21990 kPa	1024.5
22030 kPa	1024.5
22071 kPa	1024.4
22112 kPa	1024.5
22146 kPa	1024.5
22187 kPa	1024.5
22220 kPa	1024.6
22268 kPa	1024.5
22310 kPa	1024.7
22344 kPa	1024.7
22387 kPa	1024.8
22429 kPa	1024.7
22472 kPa	1024.8
22507 kPa	1024.8
22548 kPa	1024.8
22591 kPa	1024.7
22634 kPa	1024.9
22670 kPa	1024.9
22714 kPa	1025
22756 kPa	1025
22799 kPa	1024.9
22842 kPa	1025
22886 kPa	1024.9
22970 kPa	1025.2
23014 kPa	1025.2
23052 kPa	1025.2
23097 kPa	1025.2
23142 kPa	1025.2
23180 kPa	1025.2
23226 kPa	1025.3
23270 kPa	1025.4
23317 kPa	1025.4
23355 kPa	1025.3
23400 kPa	1025.4
23447 kPa	1025.5
23494 kPa	1025.6
23535 kPa	1025.4
23582 kPa	1025.6
23630 kPa	1025.6
23676 kPa	1025.6
23716 kPa	1025.7
23763 kPa	1025.7
24094 kPa	1025.8
24137 kPa	1026
24186 kPa	1026
24236 kPa	1025.8
24278 kPa	1026.1
24328 kPa	1026
24379 kPa	1026
24431 kPa	1026.1
24484 kPa	1026.1
24528 kPa	1026.2
24578 kPa	1026.2
24621 kPa	1026.3
24665 kPa	1026.2
24708 kPa	1026.3
24745 kPa	1026.3
24788 kPa	1026.3
24833 kPa	1026.2
24870 kPa	1026.4
24915 kPa	1026.4
24959 kPa	1026.4
25004 kPa	1026.4
25049 kPa	1026.5
25086 kPa	1026.6
25132 kPa	1026.5
25176 kPa	1026.6
25223 kPa	1026.7
25270 kPa	1026.7
25308 kPa	1026.7
25354 kPa	1026.8
25401 kPa	1026.7
25439 kPa	1026.8
25486 kPa	1026.9
25532 kPa	1026.7
25579 kPa	1026.8
25625 kPa	1026.9
25665 kPa	1027
26228 kPa	1027.4
26277 kPa	1027.4
26328 kPa	1027.3
26378 kPa	1027.4
26422 kPa	1027.5
26476 kPa	1027.5
26521 kPa	1027.6
26574 kPa	1027.5
26957 kPa	1027.8
27040 kPa	1027.8
27084 kPa	1027.9
27121 kPa	1027.9
27166 kPa	1028
27211 kPa	1027.9
27248 kPa	1027.9
27293 kPa	1028
27331 kPa	1028.1
27416 kPa	1028.1
27462 kPa	1028.2
27508 kPa	1028.2
27548 kPa	1028.2
27598 kPa	1028.2
27639 kPa	1028.3
27688 kPa	1028.2
27761 kPa	1028.4
27799 kPa	1028.6
27832 kPa	1028.3
27872 kPa	1028.4
